The results in this text go back to patent US8017612B2, “Piperazine compound and use thereof as a HCV polymerase inhibitor” (priority 2006, dated 2011).

pIC50: −log10 of the molar value. Structures can show the parent of a compound that is named as a salt. Some results are limits rather than exact numbers.

The target of experiment [1] is T1, HCV polymerase (NS5B) type 1b (Hepatitis C virus genotype 1b, UniProt P26663).
T1 construct: a region encoding NS5B (J Virol 1991 March, 65(3), 1105-13, 544 amino acids after deletion of 47 amino acids on the C-terminal); 6xHis (C); made in house; host or cells: Escherichia coli
Briefly: Assay of enzyme (HCV polymerase) inhibitory activity, type 1b enzyme. The following applies: HCV polymerase inhibitory activity (IC50), 1b, type 1b enzyme 0.5 μg/ml, 25° C., 60 min. The experiment is classed as biochemical, HCV BK strain (type 1b). The source says:
(§1) The evaluation of the HCV polymerase inhibitory activity of the compound of the present invention is explained in the following. This polymerase is an enzyme coded for by the non-structural protein region called NS5B on the genome RNA of HCV.
(§2) i) Preparation of Enzyme (HCV Polymerase)
(§3) Using, as a template, a cDNA clone corresponding to the full length genome RNA of HCV BK strain (type 1b) obtained from the blood of a patient with hepatitis C, a region encoding NS5B (J Virol 1991 March, 65(3), 1105-13, 544 amino acids after deletion of 47 amino acids on the C-terminal) was amplified by PCR. The objective gene was prepared by adding a 6 His tag {base pair encoding 6 continuous histidine (His)} to the 3′ end thereof and transformed to Escherichia coli. The Escherichia coli capable of producing the objective protein was cultured. The obtained cells were suspended in a buffer solution and crushed in a microfluidizer. The supernatant was obtained by centrifugation and applied to various column chromatographys {mono-S, Sephacryl S-200 (Pharmacia)}, inclusive of metal chelate chromatography, to give a standard enzyme product.
(§4) ii) Synthesis of Substrate RNA
(§5) Using a synthetic primer designed based on the sequence of HCV genomic 3′ untranslated region, a DNA fragment (148 bp) containing polyU and 3′X sequence was entirely synthesized and cloned into plasmid pBluescript SK II(+) (Stratagene). The cDNA encoding full length NS5B, which was prepared in i) above, was digested with restriction enzyme KpnI to give a cDNA fragment containing the nucleotide sequence of from the restriction enzyme cleavage site to the termination codon. This cDNA fragment was inserted into the upstream of 3′ untranslated region of the DNA in pBluescript SK II(+) and ligated. The about 450 bp inserted DNA sequence was used as a template in the preparation of substrate RNA. This plasmid was cleaved immediately after the 3′X sequence, linearized and purified by phenol-chloroform treatment and ethanol precipitation to give DNA.
(§6) RNA was synthesized (37° C., 4 hr) by run-off method using this purified DNA as a template, a promoter of pBluescript SK II(+), MEGAscript RNA synthesis kit (Ambion) and T7 RNA polymerase. DNase I was added and the mixture was incubated for 1 hr. The template DNA was removed by decomposition to give a crude RNA product. This crude product was treated with phenol-chloroform and purified by ethanol precipitation to give the objective substrate RNA.
(§7) This RNA was applied to urea denaturation polyacrylamide gel electrophoresis to confirm the quality thereof and preserved at −80° C.
(§8) iii) Assay of Enzyme (HCV Polymerase) inhibitory activity
(§9) A test substance (compound of the present invention) and a reaction mixture (30 μl) having the following composition were reacted at 25° C. for 60 min.
(§10) 10% Trichloroacetic acid and 1% sodium pyrophosphate solution (150 μl) at 4° C. was added to this reaction mixture to stop the reaction. The reaction mixture was left standing at 4° C. for 15 min to insolubilize RNA. This RNA was trapped on a glass filter (PerkinElmer, GF/B) upon filtration by suction. This filter was washed with a solution containing 1% trichloroacetic acid and 0.1% sodium pyrophosphate, washed with 90% ethanol and dried. A liquid scintillation cocktail (PerkinElmer) was added and the radioactivity of RNA synthesized by the enzyme reaction was measured on a liquid scintillation counter.
The HCV polymerase inhibitory activity (IC50) of the compound of the present invention was calculated from the values of radioactivity of the enzyme reaction with and without the test substance.
Reaction mixture: HCV polymerase (type 1b 0.5 μg/ml or type 1a 1.5 μg/m) obtained in i), substrate RNA (5 μg/ml) obtained in ii), ATP (50 μM), GTP (50 μM), CTP (50 μM), UTP (2 μM), [5,6-^3H]UTP (30-60 Ci/mmol (Amersham Biosciences), 1 μCi) 20 mM Tris-HCl (pH 7.5), EDTA (1 mM), MgCl2 (5 mM), NaCl (50 mM), DTT (1 mM), BSA (0.01%)

For experiment [2], the target named is T2, HCV polymerase (NS5B) type 1a (Hepatitis C virus genotype 1a, UniProt P26664).
T2 construct: made in house; host or cells: Escherichia coli (by the 'similar method' of the 1b enzyme)
Nature of the experiment: Assay of enzyme (HCV polymerase) inhibitory activity, type 1a enzyme. The following applies: HCV polymerase inhibitory activity (IC50), 1a, type 1a enzyme 1.5 μg/ml, 25° C., 60 min. The experiment is classed as biochemical, HCV type 1a (cloned from the blood of patients).
From the text: as §1, §2, §3
Standard enzyme products for type 1a (cloned from the blood of patients) were also obtained by a similar method.
as §4, §5, §6, §7, §8, §9, §10
The HCV polymerase inhibitory activity (IC50) of the compound of the present invention was calculated from the values of radioactivity of the enzyme reaction with and without the test substance. […]

A word on the pIC50: it is the negative decadic logarithm of the IC50, by convention in mol/L. With `CC(C)c1ccc(CNC(=O)[C@H]2CNCCN2S(=O)(=O)c2ccc(C(F)(F)F)cc2)cc1` [Example 1, (R)-1-(4-trifluoromethyl-benzenesulfonyl)-piperazine-2-carboxylic acid 4-isopropyl-benzylamide hydrochloride], the negative logarithm of the IC50 (pIC50) in experiment [1] and in experiment [2] was less than 6.00 each time.

For `CC(C)c1ccc(CNC(=O)[C@H]2CN(C(=O)Cc3ccncc3)CCN2S(=O)(=O)c2ccc(C(F)(F)F)cc2)cc1` [Example 2, (R)-4-(2-pyridin-4-yl-acetyl)-1-(4-trifluoromethyl-benzenesulfonyl)-piperazine-2-carboxylic acid 4-isopropyl-benzylamide], the pIC50 in experiment [1] and in experiment [2] was 6.00 to 7.00 each time.

As to `CC(C)c1ccc(CNC(=O)[C@H]2CN(C(=O)Nc3ccncc3)CCN2S(=O)(=O)c2ccc(C(F)(F)F)cc2)cc1` [Example 3, (R)-4-(4-trifluoromethyl-benzenesulfonyl)-piperazine-1,3-dicarboxylic acid 3-(4-isopropyl-benzylamide) 1-pyridin-4-ylamide], the pIC50 in experiment [1] and in experiment [2] was more than 7.00 throughout.

As to `CC(C)c1ccc(CNC(=O)[C@H]2CN(C(N)=S)CCN2S(=O)(=O)c2ccc(C(F)(F)F)cc2)cc1` [Example 4, (R)-4-thiocarbamoyl-1-(4-trifluoromethyl-benzenesulfonyl)-piperazine-2-carboxylic acid 4-isopropyl-benzylamide], the pIC50 in experiment [1] and in experiment [2] was 6.00 to 7.00 each time.

For `Cc1nc(N2CCN(S(=O)(=O)c3ccc(C(F)(F)F)cc3)[C@@H](C(=O)NCc3ccc(C(C)C)cc3)C2)sc1C(=O)OC(C)(C)C` [Example 5, 2-[(R)-3-(4-isopropyl-benzylcarbamoyl)-4-(4-trifluoromethyl-benzenesulfonyl)-piperazin-1-yl]-4-methyl-thiazole-5-carboxylic acid tert-butyl ester], the pIC50 in experiment [1] and in experiment [2] was less than 6.00 each time.

For `Cc1nc(N2CCN(S(=O)(=O)c3ccc(C(F)(F)F)cc3)[C@@H](C(=O)NCc3ccc(C(C)C)cc3)C2)sc1C(=O)O` [Example 6, 2-[(R)-3-(4-isopropyl-benzylcarbamoyl)-4-(4-trifluoromethyl-benzenesulfonyl)-piperazin-1-yl]-4-methyl-thiazole-5-carboxylic acid], the pIC50 in experiment [1] and in experiment [2] was more than 7.00 throughout.

On to `Cc1nc(N2CCN(S(=O)(=O)c3ccc(C(F)(F)F)cc3)[C@@H](C(=O)NCc3ccc(C(C)C)cc3)C2)sc1C(N)=O` [Example 7, (R)-4-(5-carbamoyl-4-methyl-thiazol-2-yl)-1-(4-trifluoromethyl-benzenesulfonyl)-piperazine-2-carboxylic acid 4-isopropyl-benzylamide], for which the pIC50 in experiment [1] and in experiment [2] was more than 7.00 throughout.

Regarding `COC(=O)c1cnc(N2CCN(S(=O)(=O)c3ccc(C(F)(F)F)cc3)[C@@H](C(=O)NCc3ccc(C(C)C)cc3)C2)cn1` [Example 8, (R)-3-(4-isopropyl-benzylcarbamoyl)-4-(4-trifluoromethyl-benzenesulfonyl)-3,4,5,6-tetrahydro-2H-[1,2′]bipyrazinyl-5′-carboxylic acid methyl ester], the pIC50 in experiment [1] and in experiment [2] was more than 7.00 throughout.

In the case of `CC(C)c1ccc(CNC(=O)[C@H]2CN(c3cnc(C(=O)O)cn3)CCN2S(=O)(=O)c2ccc(C(F)(F)F)cc2)cc1` [Example 9, (R)-3-(4-isopropyl-benzylcarbamoyl)-4-(4-trifluoromethyl-benzenesulfonyl)-3,4,5,6-tetrahydro-2H-[1,2′]bipyrazinyl-5′-carboxylic acid], the pIC50 in experiment [1] and in experiment [2] was more than 7.00 in each case.

In the case of `CC(=O)N1CCN(S(=O)(=O)c2ccc(OC(F)(F)F)c(I)c2)[C@@H](C(=O)NCc2ccc(C(C)C)cc2)C1` [Example 10, (R)-4-acetyl-1-(3-iodo-4-trifluoromethoxy-benzenesulfonyl)-piperazine-2-carboxylic acid 4-isopropyl-benzylamide], the negative-log IC50 (pIC50) in experiment [1] and in experiment [2] was more than 7.00 throughout.

On to `CC(=O)N1CCN(S(=O)(=O)c2ccc(OC(F)(F)F)c(CCCC(=O)O)c2)[C@@H](C(=O)NCc2ccc(C(C)C)cc2)C1` [Example 11, 4-{5-[(R)-4-acetyl-2-(4-isopropyl-benzylcarbamoyl)-piperazine-1-sulfonyl]-2-trifluoromethoxy-phenyl}-butyric acid], for which the pIC50 in experiment [1] and in experiment [2] was more than 7.00 each time.

As to `CCCc1ccc(CNC(=O)[C@H]2CN(C(C)=O)CCN2S(=O)(=O)c2ccc(C(C)C)cc2)c(C)c1` [Example 12, (R)-4-acetyl-1-(4-isopropyl-benzenesulfonyl)-piperazine-2-carboxylic acid 2-methyl-4-propyl-benzylamide], the pIC50 in experiment [1] and in experiment [2] was more than 7.00 throughout.

As to `Cc1nc(N2CCN(S(=O)(=O)c3ccc(OC(F)(F)F)cc3)[C@@H](C(=O)NCc3ccc(C(C)C)nc3)C2)sc1C(=O)O` [Example 13, 2-[(R)-3-[(6-isopropyl-pyridin-3-ylmethyl)-carbamoyl]-4-(4-trifluoromethoxy-benzenesulfonyl)-piperazin-1-yl]-4-methyl-thiazole-5-carboxylic acid], the pIC50 in experiment [1] and in experiment [2] was more than 7.00 throughout.

Take `CCCc1ccc(CNC(=O)[C@H]2CN(c3nc(C)c(C(=O)O)s3)CCN2S(=O)(=O)c2ccc(OC(F)(F)F)cc2F)cc1` [Example 14, 2-[(R)-4-(2-fluoro-4-trifluoromethoxy-benzenesulfonyl)-3-(4-propyl-benzylcarbamoyl)-piperazin-1-yl]-4-methyl-thiazole-5-carboxylic acid]: the pIC50 in experiment [1] and in experiment [2] was more than 7.00 each time.

Regarding `CC(C)c1ccc(S(=O)(=O)N2CCNCC2C(=O)NCc2ccc(C(F)(F)F)cc2)cc1` (stereo not shown) [Example 15, 1-(4-isopropyl-benzenesulfonyl)-piperazine-2-carboxylic acid 4-trifluoromethyl-benzylamide hydrochloride], the pIC50 in experiment [1] and in experiment [2] was less than 6.00 in each case.

As to `CC(C)c1ccc(S(=O)(=O)N2CCN(C)CC2C(=O)NCc2ccc(C(F)(F)F)cc2)cc1` (stereo not shown) [Example 16, 1-(4-isopropyl-benzenesulfonyl)-4-methyl-piperazine-2-carboxylic acid 4-trifluoromethyl-benzylamide], the pIC50 in experiment [1] and in experiment [2] was less than 6.00 each time.

In the case of `CC(C)c1ccc(S(=O)(=O)N2CCN(S(C)(=O)=O)CC2C(=O)NCc2ccc(C(F)(F)F)cc2)cc1` (stereo not shown) [Example 17, 1-(4-isopropyl-benzenesulfonyl)-4-methanesulfonyl-piperazine-2-carboxylic acid 4-trifluoromethyl-benzylamide], the pIC50 in experiment [1] and in experiment [2] was less than 6.00 in each case.
